How the values were obtained:
Test in all cases: relative viability (nuclei count vs DMSO), 5 days (fraction); higher = more cells survive
201T = system: 201T
Outline: (§1)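 Five library-drug doses in √10 steps were combined with a fixed anchor-drug dose, or a single drug was given alone, by pin tool to lung cancer cell lines in 1536-well plates the day after seeding. Nuclei were stained and counted after 5 days. Relative viability is the nuclei count in treated wells over that in vehicle wells, taken as the median of duplicate plates.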

BEN = system: BEN
Outline: as §1

CAL-12T = system: CAL-12T
Outline: as §1

HCC-827 = system: HCC-827
Outline: as §1

LCLC-103H = system: LCLC-103H
Outline: as §1

LCLC-97TM1 = system: LCLC-97TM1
Outline: as §1

LXF-289 = system: LXF-289
Outline: as §1

NCI-H1395 = system: NCI-H1395
Outline: as §1

NCI-H1437 = system: NCI-H1437
Outline: as §1

NCI-H1650 = system: NCI-H1650
Outline: as §1

NCI-H1792 = system: NCI-H1792
Outline: as §1

NCI-H1793 = system: NCI-H1793
Outline: as §1

NCI-H1944 = system: NCI-H1944
Outline: as §1

NCI-H2087 = system: NCI-H2087
Outline: as §1

NCI-H2228 = system: NCI-H2228
Outline: as §1

NCI-H2405 = system: NCI-H2405
Outline: as §1

NCI-H3122 = system: NCI-H3122
Outline: as §1

NCI-H322M = system: NCI-H322M
Outline: as §1

NCI-H647 = system: NCI-H647
Outline: as §1

NCI-H727 = system: NCI-H727
Outline: as §1

RERF-LC-KJ = system: RERF-LC-KJ
Outline: as §1

SK-LU-1 = system: SK-LU-1
Outline: as §1

O=c1cc(-c2cccc3c2Sc2ccccc2S3)oc(N2CCOCC2)c1 + CCNC(=O)c1noc(-c2cc(C(C)C)c(O)cc2O)c1-c1ccc(CN2CCOCC2)cc1 [Luminespib] (partner 0.01 µM)
relative viability (201T; first compound 0.08 µM): 1.02
relative viability (201T; first compound 0.253 µM): 1.05
relative viability (201T; first compound 0.8 µM): 1.16
relative viability (201T; first compound 2.53 µM): 0.99
relative viability (201T; first compound 8 µM): 0.969
relative viability (BEN; first compound 0.08 µM): 0.223
relative viability (BEN; first compound 0.253 µM): 0.435
relative viability (BEN; first compound 0.8 µM): 0.294
relative viability (BEN; first compound 2.53 µM): 0.271
relative viability (BEN; first compound 8 µM): 0.387
relative viability (CAL-12T; first compound 0.08 µM): 0.277
relative viability (CAL-12T; first compound 0.253 µM): 0.708
relative viability (CAL-12T; first compound 0.8 µM): 0.506
relative viability (CAL-12T; first compound 2.53 µM): 0.299
relative viability (CAL-12T; first compound 8 µM): 0.207
relative viability (HCC-827; first compound 0.08 µM): 0.582
relative viability (HCC-827; first compound 0.253 µM): 0.588
relative viability (HCC-827; first compound 0.8 µM): 0.656
relative viability (HCC-827; first compound 2.53 µM): 0.588
relative viability (HCC-827; first compound 8 µM): 0.639
relative viability (LCLC-103H; first compound 0.08 µM): 0.878
relative viability (LCLC-103H; first compound 0.253 µM): 1.17
relative viability (LCLC-103H; first compound 0.8 µM): 1.05
relative viability (LCLC-103H; first compound 2.53 µM): 0.959
relative viability (LCLC-103H; first compound 8 µM): 0.792
relative viability (LCLC-97TM1; first compound 0.08 µM): 0.815
relative viability (LCLC-97TM1; first compound 0.253 µM): 0.733
relative viability (LCLC-97TM1; first compound 0.8 µM): 0.807
relative viability (LCLC-97TM1; first compound 2.53 µM): 0.71
relative viability (LCLC-97TM1; first compound 8 µM): 0.708
relative viability (LXF-289; first compound 0.08 µM): 0.607
relative viability (LXF-289; first compound 0.253 µM): 0.764
relative viability (LXF-289; first compound 0.8 µM): 0.636
relative viability (LXF-289; first compound 2.53 µM): 0.69
relative viability (LXF-289; first compound 8 µM): 0.765
relative viability (NCI-H1395; first compound 0.08 µM): 0.632
relative viability (NCI-H1395; first compound 0.253 µM): 0.712
relative viability (NCI-H1395; first compound 0.8 µM): 0.658
relative viability (NCI-H1395; first compound 2.53 µM): 0.63
relative viability (NCI-H1395; first compound 8 µM): 0.661
relative viability (NCI-H1437; first compound 0.08 µM): 1.08
relative viability (NCI-H1437; first compound 0.253 µM): 1.29
relative viability (NCI-H1437; first compound 0.8 µM): 1.28
relative viability (NCI-H1437; first compound 2.53 µM): 1.15
relative viability (NCI-H1437; first compound 8 µM): 1.21
relative viability (NCI-H1650; first compound 0.08 µM): 0.189
relative viability (NCI-H1650; first compound 0.253 µM): 0.199
relative viability (NCI-H1650; first compound 0.8 µM): 0.199
relative viability (NCI-H1650; first compound 2.53 µM): 0.186
relative viability (NCI-H1650; first compound 8 µM): 0.209
relative viability (NCI-H1792; first compound 0.08 µM): 0.362
relative viability (NCI-H1792; first compound 0.253 µM): 0.686
relative viability (NCI-H1792; first compound 0.8 µM): 0.329
relative viability (NCI-H1792; first compound 2.53 µM): 0.424
relative viability (NCI-H1792; first compound 8 µM): 0.328
relative viability (NCI-H1793; first compound 0.08 µM): 0.168
relative viability (NCI-H1793; first compound 0.253 µM): 0.299
relative viability (NCI-H1793; first compound 0.8 µM): 0.231
relative viability (NCI-H1793; first compound 2.53 µM): 0.17
relative viability (NCI-H1793; first compound 8 µM): 0.153
relative viability (NCI-H1944; first compound 0.08 µM): 0.678
relative viability (NCI-H1944; first compound 0.253 µM): 0.746
relative viability (NCI-H1944; first compound 0.8 µM): 0.72
relative viability (NCI-H1944; first compound 2.53 µM): 0.684
relative viability (NCI-H1944; first compound 8 µM): 0.758
relative viability (NCI-H2087; first compound 0.08 µM): 0.2
relative viability (NCI-H2087; first compound 0.253 µM): 0.163
relative viability (NCI-H2087; first compound 0.8 µM): 0.155
relative viability (NCI-H2087; first compound 2.53 µM): 0.163
relative viability (NCI-H2087; first compound 8 µM): 0.2
relative viability (NCI-H2228; first compound 0.08 µM): 0.139
relative viability (NCI-H2228; first compound 0.253 µM): 0.106
relative viability (NCI-H2228; first compound 0.8 µM): 0.129
relative viability (NCI-H2228; first compound 2.53 µM): 0.146
relative viability (NCI-H2228; first compound 8 µM): 0.143
relative viability (NCI-H2405; first compound 0.08 µM): 0.522
relative viability (NCI-H2405; first compound 0.253 µM): 0.565
relative viability (NCI-H2405; first compound 0.8 µM): 0.464
relative viability (NCI-H2405; first compound 2.53 µM): 0.568
relative viability (NCI-H2405; first compound 8 µM): 0.465
relative viability (NCI-H3122; first compound 0.08 µM): 0.109
relative viability (NCI-H3122; first compound 0.253 µM): 0.102
relative viability (NCI-H3122; first compound 0.8 µM): 0.111
relative viability (NCI-H3122; first compound 2.53 µM): 0.0685
relative viability (NCI-H3122; first compound 8 µM): 0.106
relative viability (NCI-H322M; first compound 0.08 µM): 0.711
relative viability (NCI-H322M; first compound 0.253 µM): 0.824
relative viability (NCI-H322M; first compound 0.8 µM): 0.823
relative viability (NCI-H322M; first compound 2.53 µM): 0.769
relative viability (NCI-H322M; first compound 8 µM): 0.849
relative viability (NCI-H647; first compound 0.08 µM): 0.123
relative viability (NCI-H647; first compound 0.253 µM): 0.138
relative viability (NCI-H647; first compound 0.8 µM): 0.259
relative viability (NCI-H647; first compound 2.53 µM): 0.183
relative viability (NCI-H647; first compound 8 µM): 0.161
relative viability (NCI-H727; first compound 0.08 µM): 0.289
relative viability (NCI-H727; first compound 0.253 µM): 0.449
relative viability (NCI-H727; first compound 0.8 µM): 0.307
relative viability (NCI-H727; first compound 2.53 µM): 0.536
relative viability (NCI-H727; first compound 8 µM): 0.382
relative viability (RERF-LC-KJ; first compound 0.08 µM): 1.06
relative viability (RERF-LC-KJ; first compound 0.253 µM): 1.56
relative viability (RERF-LC-KJ; first compound 0.8 µM): 1.24
relative viability (RERF-LC-KJ; first compound 2.53 µM): 1.35
relative viability (RERF-LC-KJ; first compound 8 µM): 1.42
relative viability (SK-LU-1; first compound 0.08 µM): 0.192
relative viability (SK-LU-1; first compound 0.253 µM): 0.186
relative viability (SK-LU-1; first compound 0.8 µM): 0.209
relative viability (SK-LU-1; first compound 2.53 µM): 0.178
relative viability (SK-LU-1; first compound 8 µM): 0.183

Reference: the supplement of paper PMC10307832
